# Source: US20240131004A1, “FUNCTIONALIZED 1,3-BENZENE DIOLS AND THEIR METHOD OF USE FOR THE TREATMENT OF INFLAMMATION AND PAIN” (KANNALIFE SCIENCES, INC., priority 2021, published 2024)
# “Also recorded” adds a separate entry of the source.
# Assays:
# [1] = system: dorsal root ganglion (DRG) cultures; experiment: Alamar Blue cellular viability in DRG cultures, reversal of paclitaxel toxicity; format: cell-based, rat
# Procedure: (§1) At the conclusion of each experiment, sister cultures to those assessed by image analysis were evaluated with either a fluorescent dye-based assays for neuronal viability (6-carboxyfluorescein diacetate, CFDA) or with viability dye Alamar Blue. The preferred dye was Alamar Blue as this assay of viability could be conducted and then the dye washed off the cultures for subsequent fixation and follow-up immunocytochemical assays. […] In addition, a portion of the reductive conversion of resazurin to the highly fluorescent resorufin in the Alamar Blue reagent is attributable to the action of mitochondrial reductases. Because of the need for enhanced sensitivity, the Alamar Blue assay was predominantly used for these studies. Similar results in assessing pharmacological responses were obtained with both assays (see Brenneman et al, 2019).
# On every plate, wells without cells were used to provide a blank reading that was used to subtract background fluorescence. For the Alamar Blue viability assay, 10 ul of the dye was added directly to the culture well that contained 100 ul of nutrient medium (Ivanov et al., 2016). Incubation times with the dye ranged from 1-5 hrs., depending on the experimental goals. Fluorescence was measured at an excitation of 530 nm and an emission of 590 on a Cytofluor plate reader.
# Referring to FIG. 1, cellular viability, as measured with the viability dye Alamar Blue, is shown with relative fluorescence units (RFU) in dorsal root ganglion (DRG) cultures after treatment with 3 μM paclitaxel for 8 hours followed by 16 hours treatment with various concentrations of KLS-13019. Reference lines are provided to depict the RFU levels for control cultures (medium dash) and cultures pre-treated only with 3 μM paclitaxel (dash-dot-dash) for eight hours. […] To confirm, all treated cultures were continuously exposed to paclitaxel throughout the 24-hour duration of the experiment. […] Each value is the mean of 6 determinations.
# GPR55 [2] = experiment: Cell body GPR55 immunoreactive area in DRG neurons, paclitaxel reversal paradigm, high content imaging; format: cell-based, rat
# Procedure: (§2) The GPR55 antibody was obtained from abcam. […] The secondary antibodies were obtained from Life Technologies.
# Responses of cell body GPR55 immunoreactive areas (μ^2) of neurons from dorsal root ganglion (DRG) cultures are shown in FIG. 2 after pretreatment with 3 μM paclitaxel for 8 hours followed by 16 hours treatment with various concentrations of KLS-13019. Reference lines are provided to depict the average cell body GPR55 area for control cultures (medium dash) and that of cultures pre-treated only with 3 μM paclitaxel (dash-dot-dash) for eight hours. […] Each value is the mean of 8 determinations. […] All assays were conducted by high content fluorescence imaging (Brenneman et al., 2018 and 2019).
# interleukin-6 (IL-6) = experiment: Interleukin-6 immunoreactive area in cell bodies and neurites of DRG neurons, paclitaxel reversal paradigm; format: cell-based, rat
# Procedure: as §2
# (§3) Referring to FIG. 3, responses of interleukin-6 (IL-6) immunoreactive (IR) areas (μ^2) in cell bodies (open circles) and neurites (closed circles) of rat DRG neurons from dissociated cultures are shown after pretreatment with 3 μM paclitaxel for 8 hours followed by 16 hours treatment with various concentrations of KLS -13019. Reference lines are provided to depict the average cell body IL-6 area (medium dash) and neurites IL-6 (dash-dot-dash) from control cultures. The zero-concentration data point on both curves depicts values for cultures treated only with 3 μM paclitaxel. […] To confirm, all treated cultures were continuously exposed to paclitaxel throughout the 24-hour duration of the experiment. […] Each value is the mean of 8 determinations. […] All assays were conducted by high content fluorescence imaging (Brenneman et al., 2018 and 2019).
# interleukin-1β (IL-1β) = experiment: Interleukin-1β immunoreactive area in cell bodies and neurites of DRG neurons, paclitaxel reversal paradigm; format: cell-based, rat
# Procedure: as §2
# as §3, with “Responses” for “Referring to FIG. 3, responses”, “interleukin-1β (IL-1β)” for “interleukin-6 (IL-6)”, “shown in FIG. 4” for “shown”, “pre-treatment” for “pretreatment”, “KLS-13019.” for “KLS -13019.”, “IL-1β” for “IL-6”
# hippocampal cultures = experiment: Alamar Blue cellular viability in hippocampal cultures, reversal of LPIA toxicity; format: cell-based, rat
# Description: Because the scope of the anti-inflammatory actions of the 1,3-benzene diols included the central nervous system as well, hippocampal cultures were also employed as they express both mNCX-1 and GPR55, the two targets that mediate protection and inflammation, respectively. […] Poly-L-lysine-coated plates (BD Biosciences, Franklin Lakes, NJ) were used because of the preferential adherence and survival of neurons on this matrix support.
# as §1, with “Similar results in assessing pharmacological responses were obtained with both assays (see Brenneman et al, 2019).” left out
# On every plate, wells without cells were used to provide a blank reading that was used to subtract background fluorescence. […] Fluorescence was measured at an excitation of 530 nm and an emission of 590 on a Cytofluor plate reader. […]
# GPR55 [3] = experiment: Neuritic GPR55 immunoreactive area in DRG cultures, 6 h co-treatment with LPIA; format: cell-based, rat
# Description: (§4) Because of the recognized importance of sensory neurons in DRG to transmitting peripheral nociception (Krames, 2014) and the reported accumulation of paclitaxel in DRG from models of CIPN (Duggett et al., 2016), the preparation of choice for the in vitro studies to study protection and anti-inflammation was dissociated cultures from rat DRG. DRG cultures derived from embryonic day 18 rats were employed as the primary assay system to study KLS-13019-properties. In brief, DRG were obtained commercially through Brain Bits (Springfield, IL) and cultures prepared with slight modifications to methods previously described (Brenneman et al., 2019). Tissue was dissociated with a papain-based kit from Worthington Biochemical Corporation (Lakewood, NJ). The DRG cells were plated at low density (10,000 cells/well) in a 96-well format and maintained in serum-free medium consisting of Neurobasal Medium supplemented with B27, GlutaMAX (Gibco) and 25 ng/ml Nerve Growth Factor. Poly-D-lysine coated plates (BD Biosciences, Franklin Lakes, NJ) were employed for this culture system. Prior to the initiation of experiments between days 5 and 9 in vitro, a complete change of medium was performed in a working volume of 100 μL.
# To assess all antibody-based assays, immunocytochemical methods were employed. The goals for these assays included: 1) to assess the immunoreactive area of our molecular targets (IL-1β, IL-6, GPR55, NLRPA3) with their respective primary antibodies and distinctively labeled secondary antibodies; and 2) to compare the relative responses in both neuronal cell bodies and neurites. Prior to fixation, growth medium was removed and the wells were rinsed one time with 100 μL of DPBS (37° C.). This warm rinse is particularly important to maintain structural stability of neurites. After removal of the DPBS, cultures were fixed for 20 min at room temperature with 50 μL/well of 3.5% formaldehyde (Sigma-Aldrich: 252549) in warm (37° C.) DPBS that contained 5.5 μg/mL of Hoechst 33342 dye (Invitrogen: H3570) to label cell nuclei. […]
# human GPR55 = target: T1, human GPR55 (Homo sapiens, UniProt Q9Y2T6); experiment: PathHunter β-arrestin assay, human GPR55 in CHO-K1 cell line; format: cell-based
# T1 construct: host or cells: CHO-K1
# Procedure: In this assay, agonist-induced activation of GPR55 stimulates binding of β-arrestin to the Pro-link-tagged GPCR and forces complementation of two enzyme fragments, resulting in the formation of an active β-galactosidase enzyme. This interaction leads to an increase in enzyme activity that can be measured using chemiluminescent PathHunter detection reagents. For our application, the GPR55 agonist lysophosphatidylinositol (LPI) was tested from 0.1 nM to 30 μM to increase the relative luminescent signal relative to that of control. […] For the GPR55 antagonism assay, KLS-13019 concentrations ranging from 0.1 nM to 30 μM were tested in the presence of 16 μM LPI. Concentrations of KLS-13019 ranging from 0.1 nM to 30 μM were tested alone for possible effects of agonistic activity on β-arrestin.
# A PathHunter β-arrestin assay is shown in FIG. 8 that provides a measure of an antagonist mode assessment of KLS-13019 with a human GPR55 model system (Eurofins). To measure the β-arrestin response to a GPR55 agonist, various concentrations of lysophosphatidylinositol (LPI) were used as shown in the closed circles. […] Based on these findings, 16 μM LPI was incubated with various concentrations of KLS-13019 to test for antagonistic properties (closed inverted triangles). […] All assays were conducted with an N=10.
# NLRP3 = experiment: Neuritic NLRP3 immunoreactive spot area in hippocampal neurons, LPIA reversal paradigm; format: cell-based, rat
# Description: Tissue was dissociated with a papain-based kit from Worthington Biochemical Corporation (Lakewood, NJ).
# (§5) To assess all antibody-based assays, immunocytochemical methods were employed. The goals for these assays included: 1) to assess the immunoreactive area of our molecular targets (IL-1β, IL-6, GPR55, NLRPA3) with their respective primary antibodies and distinctively labeled secondary antibodies; and 2) to compare the relative responses in both neuronal cell bodies and neurites. Prior to fixation, growth medium was removed and the wells were rinsed one time with 100 μL of DPBS (37° C.). This warm rinse is particularly important to maintain structural stability of neurites. After removal of the DPBS, cultures were fixed for 20 min at room temperature with 50 μL/well of 3.5% formaldehyde (Sigma-Aldrich: 252549) in warm (37° C.) DPBS that contained 5.5 μg/mL of Hoechst 33342 dye (Invitrogen: H3570) to label cell nuclei. After removal of the fixative, the cultures were rinsed twice with 100 μL of DPBS and then a permeabilization/blocking buffer containing 5% normal goat serum and 0.3% triton-X100 in DPBS was added to the cultures for 10 min. After removal of the blocking buffer, the cultures were rinsed twice with 100 μL of DPBS and then primary antibodies were added for one-hour incubation at room temperature. Neurons were identified with antiserum to type III beta tubulin (tuj 1) to measure changes in all neuronal parameters. The primary antiserum employed was rabbit anti-rat obtained from Sigma-Aldrich (T2200) and used at 1:200 dilution. The secondary was an Alexa Fluor 488-conjugated Fab fragment of goat anti-rabbit IgG obtained from Life Technologies (A11070) used at 1:600.
# [4] = system: cultures of the central and peripheral nervous system; settings: Kinney 2016; Brenneman 2018, 2019; US 9,611,213; US 10,004,722; cited from earlier work
# GPR55 [5] = settings: DRG neurons
# Description: as §4
# as §5, with “The secondary was an Alexa Fluor 488-conjugated Fab fragment of goat anti-rabbit IgG obtained from Life Technologies (A11070) used at 1:600.” left out
# interleukin-1β = settings: 1 nM LPIA, after one hour of incubation, DRG neurons
# Description: as §4
# as §5, with “The secondary was an Alexa Fluor 488-conjugated Fab fragment of goat anti-rabbit IgG obtained from Life Technologies (A11070) used at 1:600.” left out
# interleukin-6 = settings: 1 nM LPIA, after one hour of incubation, DRG neurons
# Description: as §4
# as §5, with “The secondary was an Alexa Fluor 488-conjugated Fab fragment of goat anti-rabbit IgG obtained from Life Technologies (A11070) used at 1:600.” left out
# [6] = 3 μM paclitaxel 8 h, then 16 h treatment
# T1 sequence (Q9Y2T6 whole entry): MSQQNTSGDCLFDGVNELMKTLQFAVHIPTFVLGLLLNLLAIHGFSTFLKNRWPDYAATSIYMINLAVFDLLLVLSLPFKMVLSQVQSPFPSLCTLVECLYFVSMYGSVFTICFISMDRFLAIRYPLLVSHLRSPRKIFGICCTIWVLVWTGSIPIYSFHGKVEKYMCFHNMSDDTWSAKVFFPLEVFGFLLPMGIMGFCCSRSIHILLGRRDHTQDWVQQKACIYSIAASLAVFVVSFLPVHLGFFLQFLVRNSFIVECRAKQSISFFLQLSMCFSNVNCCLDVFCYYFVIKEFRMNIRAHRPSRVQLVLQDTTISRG
compound,measurement,setting,value
"C=C(C)[C@@H]1CCC(C)=C[C@H]1c1c(O)cc(CC2CN(C(C)=O)C2)cc1O [KLS-13019, 1-(3-(3,5-dihydroxy-4-((1R,6R)-3-methyl-6-(prop-1-en-2-yl)cyclohex-2-enyl)benzyl)azetidin-1-yl)ethenone]",Protection of DRG cells from paclitaxel toxicity (efficacy),"[1]; 3 μM paclitaxel 8 h pre-treatment, then 16 h treatment, relative to control cultures",fully protect
same,EC50,"[1]; Rattus norvegicus, read-out: EC50 in reversing previously established paclitaxel toxicity (Alamar Blue)",0.2 nM
same,Reversal of paclitaxel-induced increase in cell body GPR55 area (efficacy),GPR55 [2]; [6],fully returned to the average area of control cultures
same,EC50,"GPR55 [2]; Rattus norvegicus, DRG neuron, read-out: EC50 in reversing previously established increases in GPR55 area",2.31 nM
same,Reversal of paclitaxel-induced increase in IL-6 IR area in cell bodies and neurites (efficacy),interleukin-6 (IL-6); [6],fully returned to the average area of control cultures
same,IC50,"interleukin-6 (IL-6); Rattus norvegicus, DRG neuron, read-out: IC50 in reversing previously established increases in IL-6 IR area",0.3 nM
same,Reversal of paclitaxel-induced increase in IL-1β IR area in cell bodies and neurites (efficacy),interleukin-1β (IL-1β); [6],fully restored to the average area of control cultures
same,IC50,"interleukin-1β (IL-1β); Rattus norvegicus, DRG neuron, read-out: IC50 in reversing previously established increases in IL-1β IR area",0.3 nM
same,Protection of hippocampal cells from LPIA toxicity (efficacy),"hippocampal cultures; 1 nM LPIA 4 h, then 4 h treatment, relative to control cultures",fully protect
same,EC50,"hippocampal cultures; Rattus norvegicus, 4 h, read-out: EC50 in reversing previously established LPIA toxicity (Alamar Blue)",0.4 nM
same,IC50,"GPR55 [3]; Rattus norvegicus, 6 h, read-out: IC50 in preventing increases in GPR55 area",0.107 ± 0.019 nM
same,Effect on LPIA-induced increase in neuritic GPR55,"GPR55 [3]; co-treatment with 1 nM LPIA, 6 hours",blocked
same,"Agonist activity on β-arrestin, compound alone",human GPR55; 0.1 nM to 30 μM tested alone,no detectible agonist activity; also recorded: no detectible increases in β-arrestin signal
same,Antagonism of LPI-mediated increases in β-arrestin signal,"human GPR55; 30 μM KLS-13019 in presence of 16 μM LPI, N=10",completely blocked
same,NLRP3 spot areas compared with control cultures (efficacy of reversal),"NLRP3; 1 nM KLS-13019, equimolar to LPIA",not different from that of control cultures
same,IC50,"NLRP3; Rattus norvegicus, Hippocampal neuron, 4 h, read-out: IC50 of decrease in neuritic NLRP3 area",0.129 ± 0.043 nM
same,Effect on oxidative stress and nerve cell damage in previous studies,[4],prevent oxidative stress and nerve cell damage
lysophosphatidylinositol arachidonate [LPIA],Concentration producing a maximum effect on GPR55 IR area,GPR55 [5]; preliminary concentration-effect studies,1 nM
same,Effect on GPR55 IR area,"GPR55 [5]; LPIA, after one hour of incubation",increases in GPR55 IR area
same,Effect on neuritic IL-1β IR area,interleukin-1β,significant increases
same,Effect on neuritic IL-6 IR area,interleukin-6,significant increases
same,Effect of LPIA on neuritic GPR55 area,"GPR55 [3]; 1 nM LPIA, 6 hours, DRG cultures",produced an increase in neuritic GPR55
same,Effect of LPIA on neuritic NLRP3 spot area,"NLRP3; 1 nM LPIA, hippocampal cultures",increased NLRP3 spot area
